Reference: patent US12279521B2, “Materials for organic electroluminescent devices” (Merck Patent GmbH, priority 2019, dated 2025)
In brackets after ≈: the same amount, converted by molar mass. Like-named read-outs stand apart in the source and are kept apart here.

What was measured:
[1] = Baking of emission layer film at elevated temperature: state of film; format: physicochemical; conditions: for State of film after baking at elevated temp.: EML mixture per Table 5
Excerpt: The production of the corresponding OLED components is described below.
The emission layer is composed of at least one matrix material (host material) and an emitting dopant (emitter). In addition, it is possible to use mixtures of a plurality of matrix materials and co-dopants. Details given in such a form as TMM-A (92%):dopant (8%) mean here that the material TMM-A is present in the emission layer in a proportion by weight of 92% and dopant in a proportion by weight of 8%. The mixture for the emission layer is dissolved in toluene or optionally chlorobenzene. The typical solids content of such solutions is about 17 g/I when, as here, the layer thickness of 60 nm which is typical of a device is to be achieved by means of spin-coating. The layers are spun on in an inert gas atmosphere, argon in the present case, and baked for 10 minutes.

[2] = Solubility in organic solvents via HPTLC (after 24 hours and 7 days); format: physicochemical; conditions: for solubility at 24 h: 25 °C; for solubility at 24 h / solubility at 7 days: organic solvent or mixture, thermodynamic from solid; for solubility at 24 h / Solubility after 24 hours, Cyclohexylbenzene / Solubility after 24 hours, Mesitylene / Solubility after 24 hours, Tetralin / Solubility after 24 hours, Toluene: room temperature; for solubility at 7 days / Solubility after 7 days, Cyclohexylbenzene / Solubility after 7 days, Mesitylene / Solubility after 7 days, Tetralin / Solubility after 7 days, Toluene: 7 days storage at room temperature
Protocol: One way of processing the materials of the invention is from solution. In addition, it is a feature of materials of the invention that their […] stability is elevated, as apparent from the long-term solubility data in Table 1.
Method of Determining Solubility Via HPTLC
Sample preparation: The material is weighed out in two 25 mg portions (W1, W2), 0.5 ml of solvent is added, and the mixture is shaken at 60° C. for 60 minutes and then at 25° C. and 600 rpm for 24 h. When the solution is clear, more solid material is added until a saturated solution is formed. After being cooled to room temperature, the samples are filtered through a syringe filter (0.2 μm). The solutions are stored in glass vials at room temperature for 7 days, and the solubility is determined by HPTLC on days 1 and 7. For this purpose, the filtered solutions are diluted.
Calibration: Making up a standard solution: about 6 mg of substance are dissolved in 20 ml of 2-methyl-THF. If it is not possible to dissolve the material under these conditions, the concentration can be reduced. The stock solution is diluted for the calibration (standardization).
Chromatographic conditions (HPTLC): plate: HPTLC RP 18 F254, 10×20 cm eluent: methanol/2-methyl-THF 70/30 (V/V)
HPTLC measurement: The HPTLC plate is scanned by a TLC scanner, peaks are integrated and a calibration function is determined.

[3] = Ref. temp. 150, elevated temp. 180
[4] = Ref. temp. 160, elevated temp. 170
[5] = Ref. temp. 160, elevated temp. 180
[6] = cyclohexylbenzene, read-out: Solubility after 24 hours, Cyclohexylbenzene
[7] = mesitylene, read-out: Solubility after 24 hours, Mesitylene
[8] = tetralin, read-out: Solubility after 24 hours, Tetralin
[9] = toluene, read-out: Solubility after 24 hours, Toluene
[10] = cyclohexylbenzene, read-out: Solubility after 7 days, Cyclohexylbenzene
[11] = mesitylene, read-out: Solubility after 7 days, Mesitylene
[12] = tetralin, read-out: Solubility after 7 days, Tetralin
[13] = toluene, read-out: Solubility after 7 days, Toluene
[14] = Ref. temp. 150, elevated temp. 170

SMILES: c1ccc(-c2cccc(-c3cc(-c4cccc(-c5ccccc5)c4)cc(C4(c5cc(-c6cccc(-c7ccccc7)c6)cc(-c6cccc(-c7ccccc7)c6)c5)c5ccccc5-c5ccccc54)c3)c2)cc1 [Compound B-1, reference compound]
- State of film after baking at elevated temp. [1, 3]: cloudy
- State of film after baking at elevated temp. [1, 4]: slightly cloudy
- State of film after baking at elevated temp. [1, 5]: cloudy
- solubility at 24 h [2, 6]: < 20 mg/mL
- solubility at 24 h [2, 7]: > 50 mg/mL
- solubility at 24 h [2, 8]: > 50 mg/mL
- solubility at 24 h [2, 9]: > 50 mg/mL
- solubility at 7 days [2, 10]: < 20 mg/mL
- solubility at 7 days [2, 11]: < 40 mg/mL
- solubility at 7 days [2, 12]: > 50 mg/mL
- solubility at 7 days [2, 13]: > 50 mg/mL

SMILES: c1ccc(-c2cc(-c3ccccc3)cc(-c3cccc(-c4cccc(C5(c6cccc(-c7cccc(-c8cc(-c9ccccc9)cc(-c9ccccc9)c8)c7)c6)c6ccccc6-c6ccccc65)c4)c3)c2)cc1 [Compound B-2, reference compound]
- State of film after baking at elevated temp. [1, 5]: slightly cloudy
- solubility at 24 h [2, 6]: > 50 mg/mL
- solubility at 24 h [2, 7]: < 1 mg/mL
- solubility at 24 h [2, 8]: > 50 mg/mL
- solubility at 24 h [2, 9]: < 1 mg/mL
- solubility at 7 days [2, 10]: < 1 mg/mL
- solubility at 7 days [2, 11]: < 1 mg/mL
- solubility at 7 days [2, 12]: < 20 mg/mL
- solubility at 7 days [2, 13]: < 1 mg/mL

SMILES: c1ccc(-c2cccc(-c3cc(-c4cccc(-c5ccccc5)c4)cc(C4(c5cc(-c6cccc(-c7ccccc7)c6)cc(-c6cccc(-c7ccccc7)c6)c5)c5ccccc5-c5ccc(-c6ccccc6)cc54)c3)c2)cc1 [Compound B-3, reference compound]
- solubility at 24 h [2, 6]: > 50 mg/mL
- solubility at 24 h [2, 7]: < 50 mg/mL
- solubility at 24 h [2, 8]: < 50 mg/mL
- solubility at 24 h [2, 9]: > 50 mg/mL
- solubility at 7 days [2, 10]: > 50 mg/mL
- solubility at 7 days [2, 11]: < 40 mg/mL
- solubility at 7 days [2, 12]: < 50 mg/mL
- solubility at 7 days [2, 13]: > 50 mg/mL

SMILES: c1ccc(-c2cccc(-c3cc(-c4ccccc4)cc(-c4cccc(C5(c6cccc(-c7cc(-c8ccccc8)cc(-c8cccc(-c9ccccc9)c8)c7)c6)c6ccccc6-c6ccccc65)c4)c3)c2)cc1 [Compound B-4, reference compound]
- State of film after baking at elevated temp. [1, 3]: slightly cloudy

SMILES: c1ccc(-c2cc(-c3ccccc3)cc(-c3cccc(-c4cccc(C5(c6cccc(-c7cccc(-c8cc(-c9ccccc9)cc(-c9ccccc9)c8)c7)c6)c6ccccc6-c6c(-c7ccccc7)cccc65)c4)c3)c2)cc1 [Compound M-0002]
- State of film after baking at elevated temp. [1, 3]: clear
- State of film after baking at elevated temp. [1, 5]: clear
- baking of the layer at higher temperature, cloudiness, compared with B-2 ([1]; versus B-2): can be baked at higher temperature without cloudiness
- Solubility after 24 hours, Cyclohexylbenzene ([2]; cyclohexylbenzene): <1 mg/mL
- Solubility after 7 days, Cyclohexylbenzene ([2]; cyclohexylbenzene): <1 mg/mL
- Solubility after 24 hours, Mesitylene ([2]; mesitylene): >50 mg/mL
- Solubility after 7 days, Mesitylene ([2]; mesitylene): 50 mg/mL (≈ 49.8 mM)
- Solubility after 24 hours, Tetralin ([2]; tetralin): >50 mg/mL
- Solubility after 7 days, Tetralin ([2]; tetralin): >50 mg/mL
- Solubility after 24 hours, Toluene ([2]; toluene): >50 mg/mL
- Solubility after 7 days, Toluene ([2]; toluene): >50 mg/mL

SMILES: c1ccc(-c2cccc(-c3cc(-c4cccc(-c5ccccc5)c4)cc(C4(c5cc(-c6cccc(-c7ccccc7)c6)cc(-c6cccc(-c7ccccc7)c6)c5)c5ccccc5-c5c(-c6ccccc6)cccc54)c3)c2)cc1 [Compound M-0005]
- State of film after baking at elevated temp. [1, 14]: clear
- State of film after baking at elevated temp. [1, 4]: clear
- Solubility after 24 hours, Cyclohexylbenzene ([2]; cyclohexylbenzene): >50 mg/mL
- Solubility after 7 days, Cyclohexylbenzene ([2]; cyclohexylbenzene): >50 mg/mL
- solubility in cyclohexylbenzene compared with B-1 ([2]; cyclohexylbenzene, versus B-1): significantly better
- Solubility after 24 hours, Mesitylene ([2]; mesitylene): >50 mg/mL
- Solubility after 7 days, Mesitylene ([2]; mesitylene): >50 mg/mL
- long-term stability of the solution in mesitylene compared with B-1 ([2]; mesitylene, versus B-1): significantly better
- Solubility after 24 hours, Tetralin ([2]; tetralin): >50 mg/mL
- Solubility after 7 days, Tetralin ([2]; tetralin): <50 mg/mL
- Solubility after 24 hours, Toluene ([2]; toluene): >50 mg/mL
- Solubility after 7 days, Toluene ([2]; toluene): >50 mg/mL

SMILES: c1ccc(-c2cccc(-c3cc(-c4cccc(-c5ccccc5)c4)cc(C4(c5cc(-c6cccc(-c7ccccc7)c6)cc(-c6cccc(-c7ccccc7)c6)c5)c5ccccc5-c5c(-c6ccccc6-c6ccccc6)cccc54)c3)c2)cc1 [Compound M-0043]
- State of film after baking at elevated temp. [1, 3]: clear
- Solubility after 24 hours, Cyclohexylbenzene ([2]; cyclohexylbenzene): <50 mg/mL
- Solubility after 7 days, Cyclohexylbenzene ([2]; cyclohexylbenzene): <50 mg/mL
- Solubility after 24 hours, Mesitylene ([2]; mesitylene): <50 mg/mL
- Solubility after 7 days, Mesitylene ([2]; mesitylene): <50 mg/mL
- Solubility after 24 hours, Tetralin ([2]; tetralin): >50 mg/mL
- Solubility after 7 days, Tetralin ([2]; tetralin): >50 mg/mL
- Solubility after 24 hours, Toluene ([2]; toluene): <50 mg/mL
- Solubility after 7 days, Toluene ([2]; toluene): <50 mg/mL

SMILES: Cc1cc(C)c(-c2cccc3c2-c2ccccc2C3(c2cc(-c3cc(-c4ccc(C(C)(C)C)cc4)cc(-c4ccc(C(C)(C)C)cc4)c3)cc(-c3cc(-c4ccc(C(C)(C)C)cc4)cc(-c4ccc(C(C)(C)C)cc4)c3)c2)c2cc(-c3cc(-c4ccc(C(C)(C)C)cc4)cc(-c4ccc(C(C)(C)C)cc4)c3)cc(-c3cc(-c4ccc(C(C)(C)C)cc4)cc(-c4ccc(C(C)(C)C)cc4)c3)c2)c(C)c1 [Compound M-0086]
- State of film after baking at elevated temp. [1, 3]: clear
- solubility at 24 h [2, 6]: > 50 mg/mL
- solubility at 24 h [2, 7]: > 50 mg/mL
- solubility at 24 h [2, 8]: > 50 mg/mL
- solubility at 24 h [2, 9]: > 50 mg/mL
- solubility at 7 days [2, 10]: > 50 mg/mL
- solubility at 7 days [2, 11]: > 50 mg/mL
- solubility at 7 days [2, 12]: > 50 mg/mL
- solubility at 7 days [2, 13]: > 50 mg/mL

SMILES: c1ccc(-c2cc(-c3ccccc3)cc(-c3cccc(-c4cccc(C5(c6cccc(-c7cccc(-c8cc(-c9ccccc9)cc(-c9ccccc9)c8)c7)c6)c6ccccc6-c6c(-c7cccc(-c8ccccc8)c7)cccc65)c4)c3)c2)cc1 [Compound M-0162]
- State of film after baking at elevated temp. [1, 3]: clear
- solubility at 24 h [2, 6]: < 50 mg/mL
- solubility at 24 h [2, 7]: > 50 mg/mL
- solubility at 24 h [2, 8]: > 50 mg/mL
- solubility at 24 h [2, 9]: > 50 mg/mL
- solubility at 7 days [2, 10]: < 50 mg/mL
- solubility at 7 days [2, 11]: > 50 mg/mL
- solubility at 7 days [2, 12]: > 50 mg/mL
- solubility at 7 days [2, 13]: > 50 mg/mL

SMILES: Cc1ccc2c(c1)-c1c(-c3cccc(-c4ccccc4)c3)cccc1C2(c1cccc(-c2cccc3c2-c2ccccc2C3(C)C)c1)c1cccc(-c2cccc3c2-c2ccccc2C3(C)C)c1 [Compound M-0172]
- State of film after baking at elevated temp. [1, 14]: clear
- Solubility after 24 hours, Cyclohexylbenzene ([2]; cyclohexylbenzene): <40 mg/mL
- Solubility after 7 days, Cyclohexylbenzene ([2]; cyclohexylbenzene): <40 mg/mL
- Solubility after 24 hours, Mesitylene ([2]; mesitylene): <30 mg/mL
- Solubility after 7 days, Mesitylene ([2]; mesitylene): <30 mg/mL
- Solubility after 24 hours, Tetralin ([2]; tetralin): <40 mg/mL
- Solubility after 7 days, Tetralin ([2]; tetralin): <40 mg/mL
- Solubility after 24 hours, Toluene ([2]; toluene): <30 mg/mL
- Solubility after 7 days, Toluene ([2]; toluene): <30 mg/mL

SMILES: c1ccc(-c2cc(-c3ccccc3)cc(-c3cccc(-c4cccc(C5(c6cccc(-c7cccc(-c8cc(-c9ccccc9)cc(-c9ccccc9)c8)c7)c6)c6cc7c(cc6-c6c5ccc5c6-c6ccccc6C56c5ccccc5-c5ccccc56)OCO7)c4)c3)c2)cc1 [Compound M-0226]
- State of film after baking at elevated temp. [1, 3]: clear
- Solubility after 24 hours, Cyclohexylbenzene ([2]; cyclohexylbenzene): <30 mg/mL
- Solubility after 7 days, Cyclohexylbenzene ([2]; cyclohexylbenzene): <25 mg/mL
- Solubility after 24 hours, Mesitylene ([2]; mesitylene): <20 mg/mL
- Solubility after 7 days, Mesitylene ([2]; mesitylene): <20 mg/mL
- Solubility after 24 hours, Tetralin ([2]; tetralin): <30 mg/mL
- Solubility after 7 days, Tetralin ([2]; tetralin): <25 mg/mL
- solubility in toluene and mesitylene compared with B-2 ([2]; toluene and mesitylene, versus B-2): significantly better
- Solubility after 24 hours, Toluene ([2]; toluene): <20 mg/mL
- Solubility after 7 days, Toluene ([2]; toluene): <20 mg/mL
- long-term stability of the solutions compared with B-2 ([2]; versus B-2): significantly better
